Source: US4350702A, “Method of inhibiting platelet aggregation” (Beecham Group Limited, priority 1975, dated 1982)
Counter-ions that a name gives are not always drawn. Like-named read-outs stand apart in the source and are kept apart here.

Tested on: platelet aggregation in response to collagen (human platelet-rich plasma)
Test: Inhibition of collagen-induced platelet aggregation in vitro (human platelet-rich plasma, photometric aggregometer)
Assay type: cell-based
Details: 0.05 h, read-out: % Inhibition of the platelet aggregation response to collagen
Method: The compounds of the Examples above were tested for their ability to inhibit platelet aggregation in vitro as follows:
Platelet-rich-plasma (PRP) is prepared by centrifuging the anti-coagulated blood at 180 g., for 12 minutes, at room temperature. Collagen (3×-bovine achilles tendon) is suspended in 0.9% (w/v) saline, using a commercially available mixer emulsifier. PRP was mixed with 0.1 volumes saline (control) or compound dissolved in saline and incubated at 37° for 3 minutes, before the addition of collagen. Water-insoluble compounds were added to PRP, dissolved in 0.005 volumes dimethylformamide, the solvent being included in controls when appropriate. The final concentration of each compound was 100 μM.
The activity of each compound was expressed as percentage inhibition of the aggregation response to a dose of collagen producing a just-maximal change in light transmission in control PRP.

[1] = final concentration 100 μM, human PRP, 37°, 3 min incubation before collagen, just-maximal collagen dose

Row | Compound | inhibition at 100 µM [1] [%] | inhibition at 100 µM (Homo sapiens) [%]
1 | O=c1c2cc(Cl)ccc2sn1CCc1ccccn1 [Example 1, 5-Chloro-2[β-(2-pyridyl)ethyl]-1,2-benzisothiazol-3-one hydrochloride] | 100 | –
2 | O=c1c2ccccc2sn1CCCCCCN1CC2CCC(CC2)C1 [Example 2, 2-[6-(3-azabicyclo[3.2.2]non-3-yl)-hexyl]-1,2-benzisothiazlol-3-one hydrochloride] | 100 | –
3 | COc1cc2sn(CCc3ccccn3)c(=O)c2cc1OC [Example 3, 5,6-Dimethoxy-2[β-(2-pyridyl)ethyl]-1,2-benzisothiazol-3-one] | 100 | –
4 | O=c1c2ccccc2sn1CNc1ccccn1 [Example 4, 2-[2'-Pyridylaminomethyl]-1,2-benzisothiazol-3-one] | 100 | –
5 | O=c1c2ccccc2sn1N1CCOCC1 [Example 5, 2-(morpholino)-1,2-benzisothiazol-3-one] | 100 | –
6 | O=c1c2cc(Cl)ccc2sn1-c1ccccn1 [Example 6] | 100 | –
7 | O=c1c2cc(Cl)ccc2sn1-c1ncccn1 [Example 7] | 100 | –
8 | O=c1c2ccccc2sn1-c1nccs1 [Example 8, 2-(thiazol-2-yl)-1,2-benzisothiazol-3-one] | – | 100
9 | O=c1c2ccccc2sn1CCc1ccccn1 [Example 9, 2-(β-2'-pyridylethyl)-1,2-benzisothiazol-3-one hydrochloride] | 100 | –
10 | Cc1ccc2sn(CCc3ccccn3)c(=O)c2c1 [Example 10, 5-methyl-2-(β-2'-pyridylethyl)-1,2-benzisothiazol-3-one hydrochloride] | 100 | –
11 | O=c1c2ccc(Cl)cc2sn1CCc1ccccn1 [Example 11, 6-chloro-2-(β-2'-pyridylethyl)-1,2-benzisothiazol-3-one hydrochloride] | 100 | –
12 | O=c1c2cc(Cl)c(Cl)cc2sn1CCc1ccccn1 [Example 12] | 100 | –
13 | O=c1c2ccccc2sn1CCN1CC2CCC(CC2)C1 [Example 13, 2-β-(3-azabicyclo[3.2.2]non-3-yl)ethyl-1,2-benzisothiazol-3-one hydrochloride] | 100 | –
14 | O=c1c2cc(Cl)c(Cl)cc2sn1CCN1CC2CCC(CC2)C1 [Example 14, 5,6-dichloro-2-β-(3-azabicyclo[3.2.2]non-3-yl)ethyl-1,2-benzisothiazol-3-one] | 100 | –
15 | COc1cc2sn(CCN3CC4CCC(CC4)C3)c(=O)c2cc1OC [Example 15, 5,6-dimethoxy-2-β-(3-azabicyclo[3.2.2]non-3-yl)ethyl 1,2-benzisothiazol-3-one] | 92 | –
16 | O=c1c2cc(Cl)c(Cl)cc2sn1CCN1CCCC1 [Example 16, 5,6-dichloro-2-β-(1-pyrrolidinyl)ethyl-1,2-benzisothiazol-3-one] | 100 | –
17 | COc1cc2sn(CCN3CCCC3)c(=O)c2cc1OC [Example 18] | 91 | –
18 | O=c1c2ccccc2sn1CCN1CCCCCC1 [Example 19, 2-β-(homopiperidin-1-yl)ethyl-1,2-benzisothiazol-3-one hydrochloride] | 92 | –
19 | O=c1c2ccccc2sn1CCN1CCc2ccccc2C1 [Example 20, 2-β-(N-tetrahydroisoquinolylethyl)-1,2-benzisothiazol-3-one hydrochloride] | 100 | –
20 | O=c1c2ccccc2sn1CCn1sc2ccccc2c1=O [Example 21, 1,2-bis(1,2-benzisothiazol-3-on-2-yl)ethane] | 91 | –
21 | O=c1c2ccccc2sn1CNc1ccncc1 [Example 23, 2-[4'-pyridylaminomethyl]-1,2-benzisothiazol-3-one] | 23 | –
22 | CC1CCCCN1CCn1sc2ccccc2c1=O (stereo not shown) [Example 27] | 100 | –
